Experimental data as given in patent publication US20230085307A1, “PYRIDAZINONE COMPOUND AND HERBICIDE” (NISSAN CHEMICAL CORPORATION, priority 2019, published 2023).

Columns and labels:
[1] = tested on: false cleavers; experiment: Test Example 4: herbicidal effect by soil treatment (Table 19, symbol Q); format: in vivo, false cleavers (Galium spurium); conditions: amount of applied herbicide 320 g/ha
In short: (§1)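 In this soil treatment, the formulated compound reached the seeds only through the soil: seeds were buried about 1.5 cm deep in sterilized diluvial soil, then the diluted emulsion was sprayed over the surface. After three weeks at 25° C. to 30° C. in a greenhouse, effects were graded on criteria from an earlier test.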

[2] = tested on: windgrass; experiment: Test Example 4: herbicidal effect by soil treatment (Table 19, symbol L); format: in vivo, windgrass (Apera spica-venti); conditions: amount of applied herbicide 320 g/ha
In short: as §1

[3] = tested on: blackgrass; experiment: Test Example 5: herbicidal effect by foliage application, plastic box (Table 20, symbol J); format: in vivo, blackgrass (Alopecurus myosuroides); conditions: foliage application, 320 g/ha, three weeks after application
In short: (§2)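 Plants were sown into sterilized diluvial soil under about 1.5 cm cover and kept in a greenhouse at 25° C. to 30° C. Fourteen days on, foliage received an even spray of the diluted emulsion. Herbicidal or crop effect was judged three weeks afterwards.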

[4] = tested on: barnyard grass; experiment: Test Example 5: herbicidal effect by foliage application, plastic box (Table 20, symbol H); format: in vivo, barnyard grass (Echinochloa crus-galli); conditions: foliage application, 320 g/ha, three weeks after application
In short: as §2

[5] = tested on: barnyard grass; experiment: Test Example 3: herbicidal effect by foliage application, Wagner pot (Table 18, symbol H); format: in vivo, barnyard grass (Echinochloa crus-galli); conditions: 320 g/ha
In short: (§3)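 Plants were sown in alluvial soil held under 0.1–0.5 cm standing water and grown 14 days in a greenhouse at 25–30 °C. An emulsifiable formulation, water-diluted to the set dose, was then sprayed onto the foliage, and effects were scored three weeks later using previously defined criteria.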

[6] = tested on: Chinese sprangletop; experiment: Test Example 3: herbicidal effect by foliage application, Wagner pot (Table 18, symbol D); format: in vivo, chinese sprangletop (Leptochloa chinensis); conditions: 320 g/ha
In short: as §3

[7] = tested on: velvetleaf; experiment: Test Example 5: herbicidal effect by foliage application, plastic box (Table 20, symbol M); format: in vivo, velvetleaf (Abutilon theophrasti); conditions: foliage application, 320 g/ha, three weeks after application
In short: as §2

[8] = tested on: green foxtail; experiment: Test Example 4: herbicidal effect by soil treatment (Table 19, symbol G); format: in vivo, green foxtail (Setaria viridis); conditions: amount of applied herbicide 320 g/ha
In short: as §1

[9] = tested on: redroot pigweed; experiment: Test Example 4: herbicidal effect by soil treatment (Table 19, symbol N); format: in vivo, redroot pigweed (Amaranthus retroflexus); conditions: amount of applied herbicide 320 g/ha
In short: as §1

[10] = tested on: southern crabgrass; experiment: Test Example 4: herbicidal effect by soil treatment (Table 19, symbol F); format: in vivo, southern crabgrass (Digitaria ciliaris); conditions: amount of applied herbicide 320 g/ha
In short: as §1

[11] = tested on: wild oat; experiment: Test Example 5: herbicidal effect by foliage application, plastic box (Table 20, symbol I); format: in vivo, wild oat (Avena fatua); conditions: foliage application, 320 g/ha, three weeks after application
In short: as §2

[12] = tested on: lambsquarters; experiment: Test Example 5: herbicidal effect by foliage application, plastic box (Table 20, symbol O); format: in vivo, lambsquarters (Chenopodium album); conditions: foliage application, 320 g/ha, three weeks after application
In short: as §2

[13] = tested on: southern crabgrass; experiment: Test Example 5: herbicidal effect by foliage application, plastic box (Table 20, symbol F); format: in vivo, southern crabgrass (Digitaria ciliaris); conditions: foliage application, 320 g/ha, three weeks after application
In short: as §2

[14] = tested on: blackgrass; experiment: Test Example 4: herbicidal effect by soil treatment (Table 19, symbol J); format: in vivo, blackgrass (Alopecurus myosuroides); conditions: amount of applied herbicide 320 g/ha
In short: as §1

[15] = tested on: Italian ryegrass; experiment: Test Example 5: herbicidal effect by foliage application, plastic box (Table 20, symbol K); format: in vivo, Italian ryegrass (Lolium multiflorum); conditions: foliage application, 320 g/ha, three weeks after application
In short: as §2

[16] = tested on: rice flat sedge; experiment: Test Example 3: herbicidal effect by foliage application, Wagner pot (Table 18, symbol E); format: in vivo, rice flat sedge (Cyperus iria); conditions: 320 g/ha
In short: as §3

[17] = tested on: chickweed; experiment: Test Example 4: herbicidal effect by soil treatment (Table 19, symbol P); format: in vivo, common chickweed (Stellaria media); conditions: amount of applied herbicide 320 g/ha
In short: as §1

[18] = tested on: false cleavers; experiment: Test Example 5: herbicidal effect by foliage application, plastic box (Table 20, symbol Q); format: in vivo, false cleavers (Galium spurium); conditions: foliage application, 320 g/ha, three weeks after application
In short: as §2

[19] = tested on: lambsquarters; experiment: Test Example 4: herbicidal effect by soil treatment (Table 19, symbol O); format: in vivo, lambsquarters (Chenopodium album); conditions: amount of applied herbicide 320 g/ha
In short: as §1

[20] = tested on: wild oat; experiment: Test Example 4: herbicidal effect by soil treatment (Table 19, symbol I); format: in vivo, wild oat (Avena fatua); conditions: amount of applied herbicide 320 g/ha
In short: as §1

[21] = tested on: Italian ryegrass; experiment: Test Example 4: herbicidal effect by soil treatment (Table 19, symbol K); format: in vivo, Italian ryegrass (Lolium multiflorum); conditions: amount of applied herbicide 320 g/ha
In short: as §1

[22] = tested on: barnyard grass; experiment: Test Example 4: herbicidal effect by soil treatment (Table 19, symbol H); format: in vivo, barnyard grass (Echinochloa crus-galli); conditions: amount of applied herbicide 320 g/ha
In short: as §1

[23] = tested on: windgrass; experiment: Test Example 5: herbicidal effect by foliage application, plastic box (Table 20, symbol L); format: in vivo, windgrass (Apera spica-venti); conditions: foliage application, 320 g/ha, three weeks after application
In short: as §2

[24] = tested on: redroot pigweed; experiment: Test Example 5: herbicidal effect by foliage application, plastic box (Table 20, symbol N); format: in vivo, redroot pigweed (Amaranthus retroflexus); conditions: foliage application, 320 g/ha, three weeks after application
In short: as §2

[25] = tested on: green foxtail; experiment: Test Example 5: herbicidal effect by foliage application, plastic box (Table 20, symbol G); format: in vivo, green foxtail (Setaria viridis); conditions: foliage application, 320 g/ha, three weeks after application
In short: as §2

[26] = tested on: chickweed; experiment: Test Example 5: herbicidal effect by foliage application, plastic box (Table 20, symbol P); format: in vivo, common chickweed (Stellaria media); conditions: foliage application, 320 g/ha, three weeks after application
In short: as §2

[27] = tested on: persian speedwell; experiment: Test Example 4: herbicidal effect by soil treatment (Table 19, symbol R); format: in vivo, Persian speedwell (Veronica persica); conditions: amount of applied herbicide 320 g/ha
In short: as §1

[28] = tested on: velvetleaf; experiment: Test Example 4: herbicidal effect by soil treatment (Table 19, symbol M); format: in vivo, velvetleaf (Abutilon theophrasti); conditions: amount of applied herbicide 320 g/ha
In short: as §1

[29] = tested on: persian speedwell; experiment: Test Example 5: herbicidal effect by foliage application, plastic box (Table 20, symbol R); format: in vivo, Persian speedwell (Veronica persica); conditions: foliage application, 320 g/ha, three weeks after application
In short: as §2

CCCC(=O)Oc1c(C)nn(C)c(=O)c1-c1c(-c2ccc3c(c2)OCCO3)sc2cc(Cl)ccc12 [3-048]
Q: false cleavers, herbicidal effect grade [1]: 4 (Herbicidal rate of 70% or more and less than 90%)
L: windgrass, herbicidal effect grade [2]: 0 (Herbicidal rate of 5% or less (almost no effect))
J: blackgrass, herbicidal effect grade [3]: 0 (Herbicidal rate of 5% or less (almost no effect))
H: barnyard grass, herbicidal effect grade [4]: 0 (Herbicidal rate of 5% or less (almost no effect))
herbicidal effect on barnyard grass (H) [5]: 4 (Herbicidal rate of 70% or more and less than 90%)
herbicidal effect on Chinese sprangletop (D) [6]: 0 (Herbicidal rate of 5% or less (almost no effect))
M: velvetleaf, herbicidal effect grade [7]: 1 (Herbicidal rate of 5% or more and less than 20%)
G: green foxtail, herbicidal effect grade [8]: 0 (Herbicidal rate of 5% or less (almost no effect))
N: redroot pigweed, herbicidal effect grade [9]: 0 (Herbicidal rate of 5% or less (almost no effect))
F: southern crabgrass, herbicidal effect grade [10]: 0 (Herbicidal rate of 5% or less (almost no effect))
I: wild oat, herbicidal effect grade [11]: 0 (Herbicidal rate of 5% or less (almost no effect))
O: lambsquarters, herbicidal effect grade [12]: 3 (Herbicidal rate of 40% or more and less than 70%)
F: southern crabgrass, herbicidal effect grade [13]: 0 (Herbicidal rate of 5% or less (almost no effect))
J: blackgrass, herbicidal effect grade [14]: 0 (Herbicidal rate of 5% or less (almost no effect))
K: Italian ryegrass, herbicidal effect grade [15]: 0 (Herbicidal rate of 5% or less (almost no effect))
herbicidal effect on rice flat sedge (E) [16]: 2 (Herbicidal rate of 20% or more and less than 40%)
P: chickweed, herbicidal effect grade [17]: 1 (Herbicidal rate of 5% or more and less than 20%)
Q: false cleavers, herbicidal effect grade [18]: 4 (Herbicidal rate of 70% or more and less than 90%)
O: lambsquarters, herbicidal effect grade [19]: 0 (Herbicidal rate of 5% or less (almost no effect))
I: wild oat, herbicidal effect grade [20]: 0 (Herbicidal rate of 5% or less (almost no effect))
K: Italian ryegrass, herbicidal effect grade [21]: 0 (Herbicidal rate of 5% or less (almost no effect))
H: barnyard grass, herbicidal effect grade [22]: 0 (Herbicidal rate of 5% or less (almost no effect))
L: windgrass, herbicidal effect grade [23]: 0 (Herbicidal rate of 5% or less (almost no effect))
N: redroot pigweed, herbicidal effect grade [24]: 3 (Herbicidal rate of 40% or more and less than 70%)
G: green foxtail, herbicidal effect grade [25]: 0 (Herbicidal rate of 5% or less (almost no effect))
P: chickweed, herbicidal effect grade [26]: 5 (Herbicidal rate of 90% or more (almost completely withered))
R: persian speedwell, herbicidal effect grade [27]: 0 (Herbicidal rate of 5% or less (almost no effect))
M: velvetleaf, herbicidal effect grade [28]: 0 (Herbicidal rate of 5% or less (almost no effect))

COc1cc2sc(-c3ccc(F)cc3OC)c(-c3c(O)c(C)nn(C)c3=O)c2cc1OC [5-060]
Q: false cleavers, herbicidal effect grade [1]: 0 (Herbicidal rate of 5% or less (almost no effect))
L: windgrass, herbicidal effect grade [2]: 1 (Herbicidal rate of 5% or more and less than 20%)
herbicidal effect on blackgrass (J) [3]: 4 (Herbicidal rate of 70% or more and less than 90%)
herbicidal effect on barnyard grass (H) [4]: 4 (Herbicidal rate of 70% or more and less than 90%)
herbicidal effect on barnyard grass (H) [5]: 5 (Herbicidal rate of 90% or more (almost completely withered))
herbicidal effect on Chinese sprangletop (D) [6]: 2 (Herbicidal rate of 20% or more and less than 40%)
herbicidal effect on velvetleaf (M) [7]: 0 (Herbicidal rate of 5% or less (almost no effect))
G: green foxtail, herbicidal effect grade [8]: 0 (Herbicidal rate of 5% or less (almost no effect))
N: redroot pigweed, herbicidal effect grade [9]: 0 (Herbicidal rate of 5% or less (almost no effect))
F: southern crabgrass, herbicidal effect grade [10]: 0 (Herbicidal rate of 5% or less (almost no effect))
herbicidal effect on wild oat (I) [11]: 4 (Herbicidal rate of 70% or more and less than 90%)
herbicidal effect on lambsquarters (O) [12]: 3 (Herbicidal rate of 40% or more and less than 70%)
herbicidal effect on southern crabgrass (F) [13]: 3 (Herbicidal rate of 40% or more and less than 70%)
J: blackgrass, herbicidal effect grade [14]: 0 (Herbicidal rate of 5% or less (almost no effect))
herbicidal effect on Italian ryegrass (K) [15]: 3 (Herbicidal rate of 40% or more and less than 70%)
herbicidal effect on persian speedwell (R) [29]: 4 (Herbicidal rate of 70% or more and less than 90%)
herbicidal effect on rice flat sedge (E) [16]: 3 (Herbicidal rate of 40% or more and less than 70%)
P: chickweed, herbicidal effect grade [17]: 5 (Herbicidal rate of 90% or more (almost completely withered))
herbicidal effect on false cleavers (Q) [18]: 0 (Herbicidal rate of 5% or less (almost no effect))
O: lambsquarters, herbicidal effect grade [19]: 0 (Herbicidal rate of 5% or less (almost no effect))
I: wild oat, herbicidal effect grade [20]: 0 (Herbicidal rate of 5% or less (almost no effect))
K: Italian ryegrass, herbicidal effect grade [21]: 1 (Herbicidal rate of 5% or more and less than 20%)
H: barnyard grass, herbicidal effect grade [22]: 0 (Herbicidal rate of 5% or less (almost no effect))
herbicidal effect on windgrass (L) [23]: 3 (Herbicidal rate of 40% or more and less than 70%)
herbicidal effect on green foxtail (G) [25]: 4 (Herbicidal rate of 70% or more and less than 90%)
R: persian speedwell, herbicidal effect grade [27]: 3 (Herbicidal rate of 40% or more and less than 70%)
M: velvetleaf, herbicidal effect grade [28]: 0 (Herbicidal rate of 5% or less (almost no effect))
